From patent publication US12077503B2, “Substituted cyclic amides and their use as herbicides” (FMC CORPORATION, priority 2015, dated 2024)

Tests used:
Format in all cases: in vivo
Kochia (Kochia scoparia) [1] = assay: Test A preemergence; conditions: Bassia scoparia, pre-emergence, 240 h, 0 to 100 scale where 0 is no effect and 100 is complete control, read-out: Kochia plant response rating
Method in brief: (§1)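 Treatment is preemergence as a directed soil spray after planting, or postemergence at the one- to two-leaf stage, with test chemical in a non-phytotoxic solvent mixture plus surfactant. Plants stay in the greenhouse about 10 d before visual injury scoring on a 0 to 100 scale versus untreated controls.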

[2] = tested on: barnyardgrass (Echinochloa crus-galli); assay: Test A preemergence; conditions: Echinochloa crus-galli, pre-emergence, 240 h, 0 to 100 scale where 0 is no effect and 100 is complete control, read-out: Barnyardgrass plant response rating
Method in brief: as §1

[3] = tested on: pigweed (Amaranthus retroflexus); assay: Test A preemergence; conditions: Amaranthus retroflexus, pre-emergence, 240 h, 0 to 100 scale where 0 is no effect and 100 is complete control, read-out: Pigweed plant response rating
[4] = tested on: giant foxtail (Setaria faberii); assay: Test A preemergence; conditions: Setaria faberi, pre-emergence, 240 h, 0 to 100 scale where 0 is no effect and 100 is complete control, read-out: Foxtail, Giant plant response rating
Method in brief: as §1

[5] = tested on: ryegrass, Italian (Italian ryegrass, Lolium multiflorum); assay: Test A preemergence; conditions: Lolium multiflorum, pre-emergence, 240 h, 0 to 100 scale where 0 is no effect and 100 is complete control, read-out: Ryegrass, Italian plant response rating
Method in brief: as §1

[6] = tested on: ragweed (common ragweed, Ambrosia elatior); assay: Test A preemergence; conditions: Ambrosia artemisiifolia, pre-emergence, 240 h, 0 to 100 scale where 0 is no effect and 100 is complete control, read-out: Ragweed plant response rating
Method in brief: as §1

rice (Oryra sativa) = assay: Test B flooded paddy test; conditions: Oryza sativa, 250 g ai/ha, Flood; 0 to 100 scale where 0 is no effect and 100 is complete control; read-out: Rice plant response rating
Method in brief: (§2)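 Response scored visually against untreated controls, 0 = no effect and 100 = complete control, 13–15 d after treatment in the greenhouse. Compounds added to paddy water held 3 cm above soil surface. Treatment given at 2-leaf stage.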

[7] = tested on: barnyardgrass (Echinochloa crus-galli); assay: Test B flooded paddy test; conditions: Echinochloa crus-galli, 250 g ai/ha, Flood; 0 to 100 scale where 0 is no effect and 100 is complete control; read-out: Barnyardgrass plant response rating
Method in brief: as §2

[8] = tested on: sedge, umbrella (small-flower umbrella sedge, Cyperus difformis); assay: Test B flooded paddy test; conditions: Cyperus difformis, 250 g ai/ha, Flood; 0 to 100 scale where 0 is no effect and 100 is complete control; read-out: Sedge, Umbrella plant response rating
Method in brief: as §2

[9] = tested on: ducksalad (Heteranthera limosa); assay: Test B flooded paddy test; conditions: Heteranthera limosa, 250 g ai/ha, Flood; 0 to 100 scale where 0 is no effect and 100 is complete control; read-out: Ducksalad plant response rating
Method in brief: as §2

[10] = tested on: wheat (Triticum aestivum); assay: Test A postemergence; conditions: Triticum aestivum, post-emergence, 240 h, Postemergence, read-out: Wheat plant response rating (0 to 100 scale)
Method in brief: as §1

Kochia (Kochia scoparia) [11] = assay: Test A postemergence; conditions: Bassia scoparia, post-emergence, 240 h, Postemergence, read-out: Kochia plant response rating (0 to 100 scale)
Method in brief: as §1

[12] = tested on: barnyardgrass (Echinochloa crus-galli); assay: Test A postemergence; conditions: Echinochloa crus-galli, post-emergence, 240 h, Postemergence
Method in brief: as §1

corn (Zea mays) = assay: Test A postemergence; conditions: Zea mays, post-emergence, 240 h, Postemergence, read-out: Corn plant response rating (0 to 100 scale)
Method in brief: as §1

[13] = tested on: blackgrass (Alopecurus myosuroides); assay: Test A postemergence; conditions: Alopecurus myosuroides, post-emergence, 240 h, Postemergence, read-out: Blackgrass plant response rating (0 to 100 scale)
Method in brief: as §1

[14] = tested on: Galium (catchweed bedstraw, Galium aparine); assay: Test A postemergence; conditions: Galium, post-emergence, 240 h, Postemergence, read-out: Galium plant response rating (0 to 100 scale)
Method in brief: as §1

[15] = tested on: pigweed (Amaranthus retroflexus); assay: Test A postemergence; conditions: Amaranthus retroflexus, post-emergence, 240 h, Postemergence, read-out: Pigweed plant response rating (0 to 100 scale)
Method in brief: as §1

[16] = tested on: giant foxtail (Setaria faberii); assay: Test A postemergence; conditions: Setaria faberi, post-emergence, 240 h, Postemergence, read-out: Foxtail, Giant plant response rating (0 to 100 scale)
Method in brief: as §1

[17] = tested on: ryegrass, Italian (Italian ryegrass, Lolium multiflorum); assay: Test A postemergence; conditions: Lolium multiflorum, post-emergence, 240 h, Postemergence, read-out: Ryegrass, Italian plant response rating (0 to 100 scale)
Method in brief: as §1

[18] = tested on: ragweed (common ragweed, Ambrosia elatior); assay: Test A postemergence; conditions: Ambrosia artemisiifolia, post-emergence, 240 h, Postemergence, read-out: Ragweed plant response rating (0 to 100 scale)
Method in brief: as §1

[19] = 125 g ai/ha, preemergence, visual injury rating, approximately 10 d
[20] = 125 g ai/ha, visual rating about 10 d after treatment
[21] = 31 g ai/ha, 0 is no effect, 100 is complete control

## CN1C[C@H](c2cccc(C#N)c2)[C@@H](C(=O)Nc2cccc(F)c2F)C1=O [Compound 1286]
Kochia (Kochia scoparia) [1]; 31 g ai/ha, Preemergence
  pest or weed control at 31 g/ha: 0%
Kochia (Kochia scoparia) [1]; [19]
  pest or weed control at 125 g/ha: 60%
[2]; 31 g ai/ha, Preemergence
  pest or weed control at 31 g/ha: 100%
[2]; [19]
  pest or weed control at 125 g/ha: 100%
[3]; 31 g ai/ha, Preemergence
  pest or weed control at 31 g/ha: 0%
[3]; [19]
  pest or weed control at 125 g/ha: 20%
[4]; 31 g ai/ha, Preemergence
  pest or weed control at 31 g/ha: 100%
[4]; [19]
  pest or weed control at 125 g/ha: 100%
[5]; 31 g ai/ha, Preemergence
  pest or weed control at 31 g/ha: 20%
[5]; [19]
  pest or weed control at 125 g/ha: 60%
[6]; 31 g ai/ha, Preemergence
  pest or weed control at 31 g/ha: 0%
[6]; [19]
  pest or weed control at 125 g/ha: 50%
Rice (Oryra sativa)
  pest or weed control at 250 g/ha: 0%
[7]
  pest or weed control at 250 g/ha: 70%
[8]
  pest or weed control at 250 g/ha: 0%
[9]
  pest or weed control at 250 g/ha: 95%
[10]; [20]
  plant injury at 125 g/ha: 0%
[10]; [21]
  plant injury at 31 g/ha: 0%
Kochia (Kochia scoparia) [11]; [20]
  pest or weed control at 125 g/ha: 30%
Kochia (Kochia scoparia) [11]; [21]
  pest or weed control at 31 g/ha: 0%
[12]; 125 g ai/ha, visual rating about 10 d after treatment, read-out: Barnyardgrass plant response rating (0 to 100 scale, 0 no effect, 100 complete control)
  pest or weed control at 125 g/ha: 90%
[12]; 31 g ai/ha, 0 is no effect, 100 is complete control, read-out: Barnyardgrass plant response rating (0 to 100 scale)
  pest or weed control at 31 g/ha: 90%
Corn (Zea mays); [20]
  plant injury at 125 g/ha: 80%
Corn (Zea mays); [21]
  plant injury at 31 g/ha: 20%
[13]; [20]
  pest or weed control at 125 g/ha: 40%
[13]; [21]
  pest or weed control at 31 g/ha: 0%
[14]; [20]
  pest or weed control at 125 g/ha: 40%
[14]; [21]
  pest or weed control at 31 g/ha: 20%
[15]; [20]
  pest or weed control at 125 g/ha: 20%
[15]; [21]
  pest or weed control at 31 g/ha: 0%
[16]; [20]
  pest or weed control at 125 g/ha: 90%
[16]; [21]
  pest or weed control at 31 g/ha: 70%
[17]; [20]
  pest or weed control at 125 g/ha: 0%
[17]; [21]
  pest or weed control at 31 g/ha: 0%
[18]; [20]
  pest or weed control at 125 g/ha: 0%
[18]; [21]
  pest or weed control at 31 g/ha: 0%
